pIC50: −log10 of the molar value.
What was measured:
[1] = tested on: TNFα release from THP-1 cells; experiment: TNFα release from LPS-stimulated THP-1 cells; assay type: cell-based; conditions: Homo sapiens, THP-1, 18 h, LPS 10 μg/ml, 18 hours; read-out: TNFα (THP-1) IC50
Method in brief: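 THP-1 cells (10^6 cells/ml on resuspension) preincubated with compound 30 min at 37°C, 5% CO2, final DMSO ≤0.5%, then stimulated with 10 μg/ml LPS for 18 h (TNFα). Supernatants collected for TNFα analysis.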

p38α = target: T1, p38α (Homo sapiens, UniProt Q16539); experiment: p38 MAP Kinase assay, ATF2 phosphorylation (ELISA); assay type: biochemical; conditions: 40 μM ATP
T1 construct: p38 MAP Kinases are recombinant human full-length proteins with an amino-terminal GST fusion; GST (N); purchased Upstate (Charlottesville, Va.); host or cells: E. coli
Method in brief: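 ATF2 Thr69 phosphorylation was quantified by ELISA (HRP/TMB, 450 nm) after EDTA termination. Reactions: 6 ng GST-fused full-length human p38α, 15 min compound pre-incubation at room temperature, then 30 min at 37° C with 40 μM ATP and 1.25 μM GST-ATF2 (aa 19-96), pH 7.5 HEPES buffer.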

T1 sequence (Q16539 whole entry, the tested form may be a part): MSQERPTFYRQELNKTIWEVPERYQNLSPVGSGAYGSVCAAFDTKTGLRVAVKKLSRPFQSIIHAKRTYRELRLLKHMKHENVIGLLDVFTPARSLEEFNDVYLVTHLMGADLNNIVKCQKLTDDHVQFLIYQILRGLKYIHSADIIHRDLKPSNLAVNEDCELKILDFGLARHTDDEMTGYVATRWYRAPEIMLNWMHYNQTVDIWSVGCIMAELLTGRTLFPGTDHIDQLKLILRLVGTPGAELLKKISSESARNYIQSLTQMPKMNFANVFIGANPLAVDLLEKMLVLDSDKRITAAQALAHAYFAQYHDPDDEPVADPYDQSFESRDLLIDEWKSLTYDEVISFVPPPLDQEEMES

melting point: 149 °C
pIC50 [1]: 8.23
pIC50 (p38α): 8.28
Compound: CC(C)(CO)CNc1nccc(-c2c(-c3ccc(F)cc3)nc3occn23)n1 [XXXIX, 3-({4-[6-(4-Fluorophenyl)imidazo[2,1-b][1,3]oxazol-5-yl]pyrimidin-2-yl}amino)-2,2-dimethylpropan-1-ol]
